From US11530193B2, “Kinase inhibitors” (The University of Manchester, priority 2018, dated 2022)
Like-named read-outs stand apart in the source and are kept apart here.

Legend:
CAMK1D [1] = biological target: T1, CAMK1D (Homo sapiens (Human), UniProt Q8IU85); assay: Tm-Shift assay (thermal melting, SYPRO Orange); format: binding; conditions: for ΔTm at 10 µM: read-out: CAMK1d Tm-Shift; for CAMK1d Tm-Shift: compound 10 μM, protein 2 μM, ΔTm obs vs protein without ligand, triplicate
SYK = SYK (Homo sapiens (Human), UniProt P43405); assay: Tm-Shift assay (thermal melting, SYPRO Orange); format: binding;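 further: recombinant His-tagged protein made in Sf9 insect cells by baculovirus, in HEPES NaCl buffer, heated stepwise with fluorescence recorded at every temperature step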
CAMK1D [2] = biological target: T1, CAMK1D; assay: Biochemical CaMK1D enzymatic activity assay (ADP-Glo Kinase Assay); conditions: 3 nM CaMK1D, 1 μM Calmodulin, […] Autocamtide-2, 10 μM ATP, 25C, 2 hours
[3] = compound 10 μM, protein 2 μM, ΔTm obs vs protein without ligand, triplicate

| Structure (SMILES) | ΔTm at 10 µM (CAMK1D [1]) [°C] | SYK Tm-Shift (SYK; [3]) [°C] | CAMK1d Tm-Shift (CAMK1D [1]) [°C] | SYK Tm-Shift (SYK) [°C] | IC50 (CAMK1D [2]) [µM] |
| --- | --- | --- | --- | --- | --- |
| CC(C)(C)c1cc(Nc2nc(N3CCC[C@H](N)C3)ncc2C(N)=O)cc(S(=O)(=O)N2CCCC2)c1 [Example 103, (S)-2-(3-aminopiperidin-1-yl)-4-((3-(tert-butyl)-5-(pyrrolidin-1-ylsulfonyl)phenyl)amino)pyrimidine-5-carboxamide] | 12.2 | 0.7 | – | – | – |
| CN(C)S(=O)(=O)c1cc(Nc2nc(N3CCC[C@H](N)C3)ncc2C(N)=O)cc(C(C)(C)C)c1 [Example 105, (S)-2-(3-aminopiperidin-1-yl)-4-((3-(tert-butyl)-5-(N,N-dimethylsulfamoyl)phenyl)amino) pyrimidine-5-carboxamide] | – | – | 12.9 | 1.3 | – |
| CC(C)(C)c1cc(Nc2nc(N3CCC[C@H](N)C3)ncc2C(N)=O)cc(C(=O)N2CCOCC2)c1 [Example 29, (S)-2-(3-aminopiperidin-1-yl)-4-((3-(tert-butyl)-5-(morpholine-4-carbonyl)phenyl)amino)pyrimidine-5-carboxamide] | 12.4 | 0.3 | – | – | – |
| NC(=O)c1cnc(N2CCC[C@H](N)C2)nc1Nc1cc(-c2ccccc2)c2cn[nH]c2c1 [Example 60, (S)-2-(3-aminopiperidin-1-yl)-4-((4-phenyl-1H-indazol-6-yl)amino)pyrimidine-5-carboxamide] | 9.9 | – | – | – | 0.01 |
| Cc1ccccc1-c1cc(Nc2nc(N3CCC[C@H](N)C3)ncc2C(N)=O)cc(C(=O)N2CCOCC2)c1 [Example 44, (S)-2-(3-aminopiperidin-1-yl)-4-((2′-methyl-5-(morpholine-4-carbonyl)-[1,1′-biphenyl]-3-yl)amino)pyrimidine-5-carboxamide] | 10.9 | −0.3 | – | – | – |
| CN(C)C(=O)c1cc(Nc2nc(N3CCC[C@H](N)C3)ncc2C(N)=O)cc(C(C)(C)C)c1 [Example 27, (S)-2-(3-aminopiperidin-1-yl)-4-((3-(tert-butyl)-5-(dimethylcarbamoyl)phenyl)amino) pyrimidine-5-carboxamide] | – | – | 12.5 | 0.4 | – |
| CC(C)(C)c1cc(Nc2nc(N3CCC[C@H](N)C3)ncc2C(N)=O)cc(C(=O)N2CCCC2)c1 [Example 28, (S)-2-(3-aminopiperidin-1-yl)-4-((3-(tert-butyl)-5-(pyrrolidine-1-carbonyl)phenyl)amino)pyrimidine-5-carboxamide] | 11.8 | 0.5 | – | – | – |
| CC1(C)COCCN1C(=O)c1cc(Nc2nc(N3CCC[C@H](N)C3)ncc2C(N)=O)cc(C(F)(F)F)c1 [Example 32, (S)-2-(3-aminopiperidin-1-yl)-4-((3-(3,3-dimethylmorpholine-4-carbonyl)-5-(trifluoromethyl)phenyl)amino)pyrimidine-5-carboxamide] | 11.2 | 2.1 | – | – | – |
| CNS(=O)(=O)c1cc(Nc2nc(Cl)ncc2C(N)=O)cc(C(F)(F)F)c1 [Example 108, 2-chloro-4-((3-(N-methylsulfamoyl)-5-(trifluoromethyl)phenyl)amino)pyrimidine-5-carboxamide] | 10.7 | 0.3 | – | – | – |
| COC(=O)c1cc(Nc2nc(N3CCC[C@H](N)C3)ncc2C(N)=O)cc(C(C)(C)C#N)c1 [Example 45, Methyl (S)-3-((2-(3-aminopiperidin-1-yl)-5-carbamoylpyrimidin-4-yl)amino)-5-(2-cyanopropan-2-yl)benzoate] | 12.6 | 4.6 | – | – | – |
| CC(C)(C)c1cc(Nc2nc(N3CCC[C@H](N)C3)ncc2C(N)=O)cc(S(=O)(=O)N2CCOCC2)c1 [Example 104, (S)-2-(3-aminopiperidin-1-yl)-4-((3-(tert-butyl)-5-(morpholinosulfonyl)phenyl)amino) pyrimidine-5-carboxamide] | – | – | 11.5 | 0.9 | – |
| CC1(C)COCCN1C(=O)c1cccc(Nc2nc(N3CCC[C@H](N)C3)ncc2C(N)=O)c1 [Example 30, (S)-2-(3-aminopiperidin-1-yl)-4-((3-(3,3-dimethylmorpholine-4-carbonyl)phenyl)amino) pyrimidine-5-carboxamide] | – | – | 9.5 | 2.0 | – |
